Experimental findings from patent publication US20200129531A1, “USE OF WITHANIA SOMNIFERA EXTRACT TO PROTECT AGAINST AIR POLLUTION RELATED DISEASES” (DSM IP Assets B.V., priority 2017, published 2020) are described below.

The subject of one data set is BEAS-2B cells. Kind of data set: Toxicity / cell survival of BEAS-2B cells. The data set is classed as cell-based, human. Particulars: at concentrations higher than 0.3 μg/ml. The protocol: (§1) Cell survival assays of the BEAS-2B and A549 cells were performed with AlamarBlue® Cell Viability Reagent (ThermoFisher Scientific) according to the protocol of the manufacturer. Non-toxic concentrations of the extracts, fractions and single compounds were selected for the assays.

The test system of the next data set is A549 cells. Kind of data set: Toxicity / cell survival of A549 cells. As to conditions: concentrations higher than 0.31 μg/ml. The data set is classed as cell-based, human. The protocol:
as §1

Data set [1] concerns IL-6. Kind of data set: IL-6 secretion of BEAS-2B cells treated with Diesel Particulate Matter. The data set is classed as cell-based, human. An excerpt:
(§2) The human bronchial epithelial cell line BEAS-2B was from ATCC (American Type Culture Collection, Manassas, Va.) and cultured in Bronchial Epithelial cell Growth Medium (BEGM, Lonza, Wakersville, Md.) in CellBIND® surface plastic flasks (Corning Inc., Corning, N.Y.). The adenocarcinomic human alveolar basal epithelial A549 cell line was obtained from ATCC and cultured in Kaighn's Modification of Ham's F-12 Medium (F-12K medium) (Life Technologies, USA), supplemented with 10% FBS (Sigma, Saint-Louis, Mo.). These cells were cultured at 37° C. in a humidified atmosphere containing 5% CO2.
(§3) BEAS-2B cells were seeded in 12-well CellBIND® surface culture plates (Corning Inc.) at 3 to 4×10^5 cells per well. A549 cells were seeded in 12-well plates at 2×10^5 cells per well.
(§4) Diesel Particulate Matter (Standard Reference Material SRM 1650b, National Institute of Standards & Technology, NIST, Gaithersburg, Md.) at 80 mg/ml DMSO (100%) were sonicated for 5 min and thereafter diluted 400 fold in medium. This dilution was twofold further diluted for the assay.
(§5) After 24 h, cells were treated with the diluted Diesel Particulate Matter at 100 μg/ml and in the presence of different concentrations of Withania somnifera extracts, other plant extracts, fractions and compounds as indicated. The final DSMO concentrations were 0.175%.
(§6) Untreated cells or cells treated with 0.175% DMSO were used as controls. After 24 h, cell supernatants were collected.
(§7) The concentrations of IL-6 and IL-8 in the supernatants were determined by Luminex kits (BIO-RAD Laboratories, Hercules, Calif.) and used in the LiquiChip Workstation IS 200 (Qiagen, Hilden, Germany). The data were evaluated with the LiquiChip Analyser software (Qiagen).

The test system of data set [2] is IL-6. In words: IL-6 secretion of A549 cells treated with Diesel Particulate Matter. Format: cell-based, human.
Excerpt: as §2, §3, §4, §5, §6, §7

The test system of another data set is IL-8. In words: IL-8 secretion of A549 cells treated with Diesel Particulate Matter. Format: cell-based, human.
Excerpt: as §2, §3, §4, §5, §6, §7

The test system of a further data set is MCP-1. Kind of data set: MCP-1 secretion of A549 cells treated with Diesel Particulate Matter. The data set is classed as cell-based, human. From the text:
The human bronchial epithelial cell line BEAS-2B was from ATCC (American Type Culture Collection, Manassas, Va.) and cultured in Bronchial Epithelial cell Growth Medium (BEGM, Lonza, Wakersville, Md.) in CellBIND® surface plastic flasks (Corning Inc., Corning, N.Y.). The adenocarcinomic human alveolar basal epithelial A549 cell line was obtained from ATCC and cultured in Kaighn's Modification of Ham's F-12 Medium (F-12K medium) (Life Technologies, USA), supplemented with 10% FBS (Sigma, Saint-Louis, Mo.). These cells were cultured at 37° C. in a humidified atmosphere containing 5% CO2. BEAS-2B cells were seeded in 12-well CellBIND® surface culture plates (Corning Inc.) at 3 to 4×10^5 cells per well. A549 cells were seeded in 12-well plates at 2×10^5 cells per well. […] This dilution was twofold further diluted for the assay. After 24 h, cells were treated with the diluted Diesel Particulate Matter at 100 μg/ml and in the presence of different concentrations of Withania somnifera extracts, other plant extracts, fractions and compounds as indicated. The final DSMO concentrations were 0.175%. Untreated cells or cells treated with 0.175% DMSO were used as controls. After 24 h, cell supernatants were collected.

A further data set concerns PGE2. In words: PGE2 secretion of BEAS-2B cells treated with Diesel Particulate Matter. Format: cell-based, human. As to conditions: Table 10; 0.3125 μg/ml + PM 100 μg/ml, BEAS-2B, 24 h.
Excerpt: as §2, §3, §4, §5, §6
Secreted PGE2 was determined by Enzyme Immuno Assay (EIA) (Cayman Chemicals, Ann Harbor, […].).

For another data set, the system named is Nrf2. Kind of data set: Luciferase reporter assay using H411E-ARE8L cells (Nrf2 activation). As to conditions: Conc. final 0.28 μg/ml.
Where [3] appears, read: Table 3, 0.3125 μg/ml + PM 100 μg/ml, 24 h.
The mark [4] stands for this setting: Table 5, 0.3125 μg/ml + PM 100 μg/ml, A549, 24 h.
The mark [5] stands for this setting: Table 7, 0.3125 μg/ml + PM 100 μg/ml, A549, 24 h.
Where [6] appears, read: Table 9, 0.3125 μg/ml + PM 100 μg/ml, A549, 24 h.

Experimental for Nrf2: Luciferase Reporter Assay Using H411E-ARE8L Cells:
The medium for H411E-ARE8L cells was Dulbecco's Modified Eagle Medium (DMEM) high glucose containing heat inactivated 10% fetal bovine Serum (FBS). The media was exchanged every two to three-days. The DMEM assay medium used charcoal treated FBS (DMEMct). The transactivation assay was performed in 96 well plates. The plates were seeded with approximately 40′000 cells per well in 100 μl DMEMct and incubated over night at 37° C. Then the test compounds were diluted in DMEDct and given to the cells as described below. The cells were incubated for at least further 16 h at 37° C. and 5% CO2. Cells were equilibrated to room temperature. Lysis of the cells was done by adding 100 μL lysis solution, Steady-Glo© luciferase buffer according to the manufacturer (Promega) containing 0.5 mM DTT per well and incubated for 10 min at room temperature with gentle shaking. The luminescence was measured within 2 hours after incubation on a luminometer (Mithras, Berthold Technologies).
The negative control were cells in 0.5% DMSO.
All extracts, fractions and pure compounds were tested for concentrations that induce toxicity. Non-toxic concentrations were then selected for treating cells as describes in the methods section.

Regarding `CC1=C(CO)C(=O)O[C@@H]([C@@H](C)[C@H]2CC[C@H]3[C@@H]4C[C@H]5O[C@]56[C@@H](O)C=CC(=O)[C@]6(C)[C@H]4CC[C@]23C)C1` [Withaferin A, withaferin A], the “toxicity to BEAS-2B cells” value in the data set on BEAS-2B cells was “toxic”. For the same molecule, the “toxicity to A549 cells” value in the data set with A549 cells is reported as “toxic”. Moreover, the “effect on PM-induced IL-6 secretion (in words)” value in the data set with IL-6 [1] (0.3 μg/ml) is “lowered”. Moreover, in the data set with IL-6 [1] (setting [3]), the IL-6 stood at 19.4 pg/mL and the “IL-6 % of PM + DMSO” value is 77%. Besides, the “effect on PM-induced IL-6 secretion (in words)” value in the data set on IL-6 [2] (A549) is on record as “decrease”. Besides, in the data set on IL-6 [2] (setting [4]), the IL-6 stood at 3.5 pg/mL and the “IL-6 % of PM + DMSO” value is reported as 29%. Moreover, the “inhibition of IL-8 secretion (in words)” value in the data set with IL-8 (A549, PM-induced, 0.31 μg/ml) is on record as “highest inhibition of the pure compounds”. In the data set with IL-8 (setting [5]), the IL-8 came out at 106.7 pg/mL and the “IL-8 % of PM + DMSO” value was 39%. Also, in the data set on MCP-1 (A549), the “effect on PM-induced MCP-1 secretion (in words)” value is “significant decrease”. In the data set on MCP-1 (setting [6]), the MCP-1 was determined as 632 pg/mL and the “MCP-1 % of PM + DMSO” value amounted to 66%. For the same molecule, in the data set with PGE2, the PGE2 worked out at 33.2 pg/mL and the “PGE2 % of PM + DMSO” value stood at 87%. The “Nrf-2 activity, Average” value with Nrf2 is listed as 32053 relative units of luciferase fluorescence.
